According to patent US6525001B1, “Substituted pyrimidine and pyridine herbicides” (Mid-American Commercialization Corporation, priority 1997, dated 2003):

Legend:
Assay type in all cases: in vivo
[1] = tested on: giant foxtail (Setaria faberii); experiment: Test B pre-/postemergence; parameters: key: 0 is no effect; 10 is complete control
In short: (§1)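 Response scores run from 0, meaning no effect, to 10, meaning complete control, assigned by eye relative to controls twelve to sixteen days after spraying. Treatment was both preemergence on planted seed and postemergence on plants at the 1- to 4-leaf stage.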

[2] = tested on: purple nutsedge (Cyperus rotundus); experiment: Test B pre-/postemergence; parameters: key: 0 is no effect; 10 is complete control
In short: as §1

corn (Zea mays) = experiment: Test C; parameters: key: 0 was no effect; 100 was complete control; settings: PREEMERGENCE
[3] = tested on: ivyleaf morningglory (Ipomoea hederacea); experiment: Test C; parameters: key: 0 was no effect; 100 was complete control; settings: PREEMERGENCE
[4] = tested on: giant foxtail (Setaria faberii); experiment: Test C; parameters: key: 0 was no effect; 100 was complete control; settings: PREEMERGENCE
[5] = tested on: purple nutsedge (Cyperus rotundus); experiment: Test C; parameters: key: 0 was no effect; 100 was complete control; settings: PREEMERGENCE
[6] = tested on: arrowleaf sida (Sida rhombifolia); experiment: Test C; parameters: key: 0 was no effect; 100 was complete control; settings: PREEMERGENCE
soybean (Glycine max) = experiment: Test C; parameters: key: 0 was no effect; 100 was complete control; settings: PREEMERGENCE
[7] = tested on: surinam grass (Brachiaria decumbens); experiment: Test C; parameters: key: 0 was no effect; 100 was complete control; settings: PREEMERGENCE
[8] = tested on: duck salad (Heteranthera limosa); experiment: Test B flood test
In short: (§2)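 Each value is a visual injury score relative to controls, with 10 meaning complete control and 0 no effect. Evaluation took place twelve to sixteen days after the 2-leaf-stage plants were treated and kept in the greenhouse.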

[9] = tested on: bamyardgrass (Echinochloa crus-galli); experiment: Test B flood test
In short: as §2

[10] = tested on: smallflower flatsedge (Cyperus difformis); experiment: Test B flood test; settings: for S. Flatsedge plant response rating: Rate 125 g/ha, Postemergence section (flood test species)
In short: as §2

rice (Oryza sativa) = experiment: Test B flood test; settings: for Rice plant response rating: Rate 125 g/ha, Postemergence section (flood test species)
In short: as §2

[11] = tested on: redroot pigweed (Amaranthus retroflexus); experiment: Test C; parameters: key: 0 was no effect; 100 was complete control; settings: PREEMERGENCE
[12] = tested on: eastern black nightshade (Solanum ptycanthum); experiment: Test C; parameters: key: 0 was no effect; 100 was complete control; settings: PREEMERGENCE
[13] = Rate 250 g/ha, Postemergence (so in the source)
[14] = Rate 62 g/ha, Postemergence (flood test)
[15] = Rate 125 g/ha, Postemergence, flood test
[16] = Rate 250 g/ha, Postemergence (flood test species)

For Cc1cnc(-n2ccc(C(F)(F)F)n2)nc1Cc1cccc(OC(F)(F)F)c1 [Compound 42], the “Plant response rating, Giant foxtail” value ([1]; Rate 62 g/ha, Postemergence) was 6, the “Giant foxtail plant response rating” value ([1]; Rate 62 g/ha, Preemergence) was 10 and the “Giant foxtail plant response rating” value ([1]; Rate 125 g/ha, Postemergence) was 7. The “Giant foxtail plant response rating” value ([1]; Rate 125 g/ha, Preemergence) was 10, the “Plant response rating, Giant foxtail” value ([1]; Rate 250 g/ha, Postemergence) was 9 and the “Plant response rating, Giant foxtail” value [1, 13] was 10. The “Plant response rating, Nutsedge” value ([2]; Rate 62 g/ha, Postemergence) was 0, the “Nutsedge plant response rating” value ([2]; Rate 62 g/ha, Preemergence) was 0 and the “Nutsedge plant response rating” value ([2]; Rate 125 g/ha, Postemergence) was 0. The “Plant response rating, Nutsedge” value ([2]; Rate 250 g/ha, Postemergence) was 2, the “Plant response rating, Nutsedge” value [2, 13] was 0 and the “Plant response rating, Corn” value (corn (Zea mays); Rate 35 g/ha) was 5. The “Plant response rating, Corn” value (corn (Zea mays); Rate 70 g/ha) was 5, the “Plant response rating, Corn” value (corn (Zea mays); Rate 140 g/ha) was 5 and the “Plant response rating, I. morningglory” value ([3]; Rate 35 g/ha) was 30. For the same compound, the “Plant response rating, I. morningglory” value ([3]; Rate 70 g/ha) was 70, the “Plant response rating, I. morningglory” value ([3]; Rate 140 g/ha) was 100 and the “Plant response rating, Giant foxtail” value ([4]; Rate 35 g/ha) was 70. The “Plant response rating, Giant foxtail” value ([4]; Rate 70 g/ha) was 80, the “Plant response rating, Giant foxtail” value ([4]; Rate 140 g/ha) was 100 and the “Plant response rating, Purple nutsedge” value ([5]; Rate 35 g/ha) was 0. For the same compound, the “Plant response rating, Purple nutsedge” value ([5]; Rate 70 g/ha) was 0, the “Plant response rating, Purple nutsedge” value ([5]; Rate 140 g/ha) was 0 and the “Plant response rating, Arrowleaf sida” value ([6]; Rate 35 g/ha) was 95. The “Plant response rating, Arrowleaf sida” value ([6]; Rate 70 g/ha) was 95, the “Plant response rating, Arrowleaf sida” value ([6]; Rate 140 g/ha) was 100 and the “Plant response rating, Soybean” value (soybean (Glycine max); Rate 35 g/ha) was 0. For the same compound, the “Plant response rating, Soybean” value (soybean (Glycine max); Rate 70 g/ha) was 5, the “Plant response rating, Soybean” value (soybean (Glycine max); Rate 140 g/ha) was 35 and the “Plant response rating, Surinam grass” value ([7]; Rate 35 g/ha) was 50. For the same compound, the “Plant response rating, Surinam grass” value ([7]; Rate 70 g/ha) was 55, the “Plant response rating, Surinam grass” value ([7]; Rate 140 g/ha) was 70 and the “Plant response rating, Ducksalad” value [8, 14] was 1. For the same compound, the “Plant response rating, Ducksalad” value [8, 15] was 8, the “Plant response rating, Ducksalad” value [8, 16] was 8 and the “Plant response rating, Barnyardgrass” value [9, 14] was 4. For the same compound, the “Plant response rating, Barnyardgrass” value [9, 15] was 4, the “Plant response rating, Barnyardgrass” value [9, 16] was 5 and the “Plant response rating, S. Flatsedge” value [10, 14] was 9. The “S. Flatsedge plant response rating” value [10] was 9, the “Plant response rating, S. Flatsedge” value [10, 16] was 9 and the “Plant response rating, Rice” value (rice (Oryza sativa); [14]) was 4. The “Rice plant response rating” value (rice (Oryza sativa)) was 6, the “Plant response rating, Rice” value (rice (Oryza sativa); [16]) was 6 and the “Plant response rating, Redroot pigweed” value ([11]; Rate 35 g/ha) was 100. For the same compound, the “Plant response rating, Redroot pigweed” value ([11]; Rate 70 g/ha) was 100, the “Plant response rating, Redroot pigweed” value ([11]; Rate 140 g/ha) was 100 and the “Plant response rating, E. blacknightsh” value ([12]; Rate 35 g/ha) was 90. The “Plant response rating, E. blacknightsh” value ([12]; Rate 70 g/ha) was 95 and the “Plant response rating, E. blacknightsh” value ([12]; Rate 140 g/ha) was 95.

For Cc1cnc(-n2cnc(C(F)(F)F)n2)nc1Cc1cccc(C(F)(F)F)c1 [Compound 43], the “Plant response rating, Giant foxtail” value ([1]; Rate 62 g/ha, Postemergence) was 8, the “Giant foxtail plant response rating” value ([1]; Rate 62 g/ha, Preemergence) was 7 and the “Giant foxtail plant response rating” value ([1]; Rate 125 g/ha, Postemergence) was 9. For the same compound, the “Giant foxtail plant response rating” value ([1]; Rate 125 g/ha, Preemergence) was 9, the “Plant response rating, Giant foxtail” value ([1]; Rate 250 g/ha, Postemergence) was 9 and the “Plant response rating, Giant foxtail” value [1, 13] was 9. For the same compound, the “Plant response rating, Nutsedge” value ([2]; Rate 62 g/ha, Postemergence) was 0, the “Nutsedge plant response rating” value ([2]; Rate 62 g/ha, Preemergence) was 0 and the “Nutsedge plant response rating” value ([2]; Rate 125 g/ha, Postemergence) was 2. The “Nutsedge plant response rating” value ([2]; Rate 125 g/ha, Preemergence) was 0, the “Plant response rating, Nutsedge” value ([2]; Rate 250 g/ha, Postemergence) was 3 and the “Plant response rating, Corn” value (corn (Zea mays); Rate 35 g/ha) was 0. The “Plant response rating, Corn” value (corn (Zea mays); Rate 70 g/ha) was 30, the “Plant response rating, Corn” value (corn (Zea mays); Rate 140 g/ha) was 55 and the “Plant response rating, I. morningglory” value ([3]; Rate 35 g/ha) was 20. The “Plant response rating, I. morningglory” value ([3]; Rate 70 g/ha) was 100, the “Plant response rating, I. morningglory” value ([3]; Rate 140 g/ha) was 100 and the “Plant response rating, Giant foxtail” value ([4]; Rate 35 g/ha) was 100. For the same compound, the “Plant response rating, Giant foxtail” value ([4]; Rate 70 g/ha) was 100, the “Plant response rating, Giant foxtail” value ([4]; Rate 140 g/ha) was 100 and the “Plant response rating, Purple nutsedge” value ([5]; Rate 35 g/ha) was 0. For the same compound, the “Plant response rating, Purple nutsedge” value ([5]; Rate 70 g/ha) was 0, the “Plant response rating, Purple nutsedge” value ([5]; Rate 140 g/ha) was 0 and the “Plant response rating, Arrowleaf sida” value ([6]; Rate 35 g/ha) was 100. For the same compound, the “Plant response rating, Arrowleaf sida” value ([6]; Rate 70 g/ha) was 100, the “Plant response rating, Arrowleaf sida” value ([6]; Rate 140 g/ha) was 100 and the “Plant response rating, Soybean” value (soybean (Glycine max); Rate 35 g/ha) was 0. The “Plant response rating, Soybean” value (soybean (Glycine max); Rate 70 g/ha) was 5, the “Plant response rating, Soybean” value (soybean (Glycine max); Rate 140 g/ha) was 55 and the “Plant response rating, Surinam grass” value ([7]; Rate 35 g/ha) was 0. For the same compound, the “Plant response rating, Surinam grass” value ([7]; Rate 70 g/ha) was 5, the “Plant response rating, Surinam grass” value ([7]; Rate 140 g/ha) was 10 and the “Plant response rating, Ducksalad” value [8, 14] was 8. For the same compound, the “Plant response rating, Ducksalad” value [8, 15] was 9, the “Plant response rating, Ducksalad” value [8, 16] was 9 and the “Plant response rating, Barnyardgrass” value [9, 14] was 4. For the same compound, the “Plant response rating, Barnyardgrass” value [9, 15] was 4, the “Plant response rating, Barnyardgrass” value [9, 16] was 5 and the “Plant response rating, S. Flatsedge” value [10, 14] was 9. For the same compound, the “S. Flatsedge plant response rating” value [10] was 9, the “Plant response rating, S. Flatsedge” value [10, 16] was 9 and the “Plant response rating, Rice” value (rice (Oryza sativa); [14]) was 4. For the same compound, the “Rice plant response rating” value (rice (Oryza sativa)) was 6, the “Plant response rating, Rice” value (rice (Oryza sativa); [16]) was 7 and the “Plant response rating, Redroot pigweed” value ([11]; Rate 35 g/ha) was 100. For the same compound, the “Plant response rating, Redroot pigweed” value ([11]; Rate 70 g/ha) was 100, the “Plant response rating, Redroot pigweed” value ([11]; Rate 140 g/ha) was 100 and the “Plant response rating, E. blacknightsh” value ([12]; Rate 35 g/ha) was 100. The “Plant response rating, E. blacknightsh” value ([12]; Rate 70 g/ha) was 100 and the “Plant response rating, E. blacknightsh” value ([12]; Rate 140 g/ha) was 100.
